This is an account of results in US20240343717A1, “MICROBIOCIDAL PYRAZOLE DERIVATIVES” (SYNGENTA CROP PROTECTION AG, priority 2021, published 2024).

What is called pest or weed control is the degree to which the test organism was suppressed or injured, in per cent. What is called melting point is the temperature, or range, at which the solid turns liquid.

Data set [1] relates to Botryotinia fuckeliana (Botrytis cinerea). The data set is described as follows: Botryotinia fuckeliana (Botrytis cinerea) / liquid culture (gray mould). The data set is classed as cell-based. As to conditions: growth inhibition photometrically 3-4 days after application, read-out: control of Botryotinia fuckeliana. An outline of the steps:
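Conidia suspended in Vogels broth and added to compound dispensed from DMSO. Incubated at 24°C, with growth inhibition measured photometrically 3–4 days later.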

For the next data set, the system named is Sclerotinia sclerotiorum. The experiment in a line: Sclerotinia sclerotiorum / liquid culture (cottony rot). Format: cell-based. As to conditions: growth inhibition photometrically 3-4 days after application, read-out: control of Sclerotinia sclerotiorum. On the procedure: Example B15: Sclerotinia sclerotiorum/Liquid Culture (Cottony Rot) Mycelia fragments of a newly grown liquid culture of the fungus are directly mixed into nutrient broth (PDB potato dextrose broth). After placing a (DMSO) solution of test compound into a microtiter plate (96-well format) the nutrient broth containing the fungal material is added. The test plates are incubated at 24° C. and the inhibition of growth is determined photometrically 3-4 days after application.

Data set [2] concerns Mycosphaerella graminicola (Septoria tritici). The data set is described as follows: Mycosphaerella graminicola (Septoria tritici) / liquid culture (Septoria blotch). The data set is classed as cell-based. The note with it: Zymoseptoria tritici, growth inhibition photometrically 4-5 days after application, read-out: control of Mycosphaerella graminicola. An outline of the steps: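 Conidia suspended in potato dextrose broth and added to test compound supplied in DMSO in 96-well plates. Incubated at 24 °C, and growth inhibition read photometrically 4-5 days after application.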

For data set [3], the system named is Glomerella lagenarium (Colletotrichum lagenarium). The experiment in a line: Glomerella lagenarium (Colletotrichum lagenarium) / liquid culture (anthracnose). Format: cell-based. The note with it: Colletotrichum orbiculare, growth inhibition photometrically 3-4 days after application, read-out: control of Glomerella lagenarium. The procedure, abridged: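 Cryo-stored conidia in potato dextrose broth were added to test compound in DMSO. Plates were incubated at 24° C, and growth inhibition was read photometrically 3-4 days after application.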

Data set [4] relates to Monographella nivalis (Microdochium nivale). The experiment in a line: Monographella nivalis (Microdochium nivale) / liquid culture (foot rot cereals). The data set is classed as cell-based. As to conditions: growth inhibition photometrically 4-5 days after application, read-out: control of Monographella nivalis. An outline of the steps:
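Fungal conidia mixed directly into potato dextrose broth and added to test compound delivered in DMSO. Incubated at 24° C; growth inhibition read photometrically 4-5 days after application.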

Data set [5] deals with Mycosphaerella arachidis (Cercospora arachidicola). The experiment in a line: Mycosphaerella arachidis (Cercospora arachidicola) / liquid culture (early leaf spot). The data set is classed as cell-based. As to conditions: growth inhibition photometrically 4-5 days after application, read-out: control of Mycosphaerella arachidis. On the procedure: Example B10: Mycosphaerella arachidis (Cercospora arachidicola)/Liquid Culture (Early Leaf Spot) Conidia of the fungus from cryogenic storage are directly mixed into nutrient broth (PDB potato dextrose broth). After placing a (DMSO) solution of test compound into a microtiter plate (96-well format), the nutrient broth containing the fungal spores is added. The test plates are incubated at 24° C. and the inhibition of growth is determined photometrically 4-5 days after application.

The next data set deals with Fusarium culmorum. The experiment in a line: microbe, parasite or virus in culture. The data set is classed as cell-based. As to conditions: read-out: control of Fusarium culmorum.
For a further data set, the system named is Alternaria solani. The experiment in a line: Alternaria solani / tomato / leaf disc (early blight). The note with it: foliar, tomato leaf disks, sprayed 2 days before inoculation, compared to untreated control. The data set is classed as in vivo. On the procedure:
Example B1: Alternaria solani/Tomato/Leaf Disc (Early Blight) Tomato leaf disks cv. Baby are placed on agar in multiwell plates (24-well format) and sprayed with the formulated test compound diluted in water. The leaf disks are inoculated with a spore suspension of the fungus 2 days after application. The inoculated leaf disks are incubated at 23° C./21° C.

The next data set relates to Pyrenophora teres. The data set is described as follows: Pyrenophora teres / barley / leaf disc preventative (net blotch). Format: in vivo. The note with it: foliar, barley leaf segments, inoculated 2 days after application. The method, then:
Example B14: Pyrenophora teres/Barley/Leaf Disc Preventative (Net Blotch) Barley leaf segments cv. Hasso are placed on agar in a multiwell plate (24-well format) and sprayed with the formulated test compound diluted in water. The leaf segments are inoculated with a spore suspension of the fungus 2 days after application. The inoculated leaf segments are incubated at 20° C. and 65% rh under a light regime of 12 h light/12 h darkness in a climate cabinet and the activity of a compound is assessed as disease control compared to untreated when an appropriate level of disease damage appears in untreated check leaf segments (5-7 days after application).

Data set [6] has as its system Phaeosphaeria nodorum (Septoria nodorum). The experiment in a line: Phaeosphaeria nodorum (Septoria nodorum) / wheat / leaf disc preventative (glume blotch). Format: in vivo. The note with it: Parastagonospora nodorum, foliar, wheat leaf segments, inoculated 2 days after application. The method, then: Example B8: Phaeosphaeria nodorum (Septoria nodorum)/Wheat/Leaf Disc Preventative (Glume Blotch) Wheat leaf segments cv. Kanzler are placed on agar in a multiwell plate (24-well format) and sprayed with the formulated test compound diluted in water. The leaf disks are inoculated with a spore suspension of the fungus 2 days after application. The inoculated test leaf disks are incubated at 20° C. and 75% rh under a light regime of 12 h light/12 h darkness in a climate cabinet and the activity of a compound is assessed as percent disease control compared to untreated when an appropriate level of disease damage appears in untreated check leaf disks (5-7 days after application).

The subject of data set [7] is Blumeria graminis f. sp. tritici (Erysiphe graminis f. sp. tritici). The data set is described as follows: Blumeria graminis f. sp. tritici / wheat / leaf disc preventative (powdery mildew on wheat). The data set is classed as in vivo. As to conditions: foliar, wheat leaf segments, inoculated 1 day after application. The method, then: Example B4: Blumeria graminis f. Sp. Tritici (Erysiphe graminis f. Sp. Tritici)/Wheat/Leaf Disc Preventative (Powdery Mildew on Wheat) Wheat leaf segments cv. Kanzler are placed on agar in a multiwell plate (24-well format) and sprayed with the formulated test compound diluted in water. The leaf disks are inoculated by shaking powdery mildew infected plants above the test plates 1 day after application. The inoculated leaf disks are incubated at 20° C. and 60% rh under a light regime of 24 h darkness followed by 12 h light/12 h darkness in a climate chamber and the activity of a compound is assessed as percent disease control compared to untreated when an appropriate level of disease damage appears on untreated check leaf segments (6-8 days after application).

`Cn1ncc(C(C)(CNC(=O)c2cc(-c3ccc(F)cc3F)on2)c2cccc(C#N)n2)c1Cl` (stereo not shown) [Compound P-119, N-[2-(5-chloro-1-methyl-pyrazol-4-yl)-2-(6-cyano-2-pyridyl)propyl]-5-(2,4-difluorophenyl) isoxazole-3-carboxamide]: the inhibition of growth at 20 ppm (in data set [1]; with Sclerotinia sclerotiorum; in data set [2]; in data set [3]; in data set [4]; in data set [5]) was no less than 80% in each case. Besides, in the data set with Fusarium culmorum, the inhibition of growth at 20 ppm was no less than 80%.
With `Cn1ncc(C(C)(CNC(=O)c2nnc(-c3ccc(F)cc3F)s2)c2cccc(Cl)n2)c1Cl` (stereo not shown) [Compound P-25, N-[2-(5-chloro-1-methyl-pyrazol-4-yl)-2-(6-chloro-2-pyridyl)propyl]-5-(2,4-difluorophenyl)-1,3,4-thiadiazole-2-carboxamide], the inhibition of growth at 20 ppm (in data set [1]; in the data set with Sclerotinia sclerotiorum; in data set [2]; in data set [3]; in [4]; in data set [5]) was no less than 80% throughout. Further, the inhibition of growth at 20 ppm in the data set with Fusarium culmorum is no less than 80%. The pest or weed control at 200 ppm (with Alternaria solani; in the data set on Pyrenophora teres; in [6]; in [7]) was no less than 80% in each case.
As for `COc1cnc(Cl)nc1C(C)(CNC(=O)c1cc(-c2ccc(F)cc2F)on1)c1cnn(C)c1` (stereo not shown) [Compound P-65, N-[2-(2-chloro-5-methoxy-pyrimidin-4-yl)-2-(1-methylpyrazol-4-yl)propyl]-5-(2,4-difluorophenyl) isoxazole-3-carboxamide], the melting point is 145 to 151 °C.
Take `Cn1cc(C(C)(CNC(=O)c2nnc(-c3ccc(F)cc3F)s2)c2ccccn2)cn1` (stereo not shown) [Compound P-6, 5-(2,4-difluorophenyl)-N-[2-(1-methylpyrazol-4-yl)-2-(2-pyridyl)propyl]-1,3,4-thiadiazole-2-carboxamide]: the inhibition of growth at 20 ppm in data set [1], in data set [2], in [3] and in data set [4] was no less than 80% in each case. Moreover, the pest or weed control at 200 ppm (in the data set on Alternaria solani; in the data set on Pyrenophora teres; in [6]; in data set [7]) was no less than 80% each time.
In the case of `Cn1cc(C(C)(CNC(=O)c2nnc(-c3ccc(F)cc3F)o2)c2cccc(Cl)n2)cn1` (stereo not shown) [Compound P-101, N-[2-(6-chloro-2-pyridyl)-2-(1-methylpyrazol-4-yl)propyl]-5-(2,4-difluorophenyl)-1,3,4-oxadiazole-2-carboxamide], the inhibition of growth at 20 ppm (in data set [1]; with Sclerotinia sclerotiorum; in [2]; in [3]; in data set [4]; in [5]) was no less than 80% in each case. Also, the pest or weed control at 200 ppm (with Alternaria solani; in the data set with Pyrenophora teres; in [6]; in [7]) was no less than 80% in each case.
As to `Cn1ncc(C(C)(CNC(=O)c2nnc(-c3ccc(F)cc3F)s2)c2cccc(C#N)n2)c1Cl` (stereo not shown) [Compound P-118, N-[2-(5-chloro-1-methyl-pyrazol-4-yl)-2-(6-cyano-2-pyridyl)propyl]-5-(2,4-difluorophenyl)-1,3,4-thiadiazole-2-carboxamide], the inhibition of growth at 20 ppm (in data set [1]; with Sclerotinia sclerotiorum; in data set [2]; in data set [3]; in data set [4]; in data set [5]) was no less than 80% each time. Besides, the inhibition of growth at 20 ppm in the data set on Fusarium culmorum is no less than 80%.
`COc1ccc(C(C)(CNC(=O)c2cc(-c3ccc(F)cc3F)on2)c2cnn(C)c2)nc1Cl` (stereo not shown) [Compound P-14, N-[2-(6-chloro-5-methoxy-2-pyridyl)-2-(1-methylpyrazol-4-yl)propyl]-5-(2,4-difluorophenyl) isoxazole-3-carboxamide] returned a melting point of 196 to 199 °C. Besides, the inhibition of growth at 20 ppm in data set [2] is no less than 80%.
Turning to `Cn1cc(C(C)(CNC(=O)c2cc(-c3ccc(F)cc3F)on2)c2cccc(C3CC3)n2)cn1` (stereo not shown) [Compound P-102, N-[2-(6-cyclopropyl-2-pyridyl)-2-(1-methylpyrazol-4-yl)propyl]-5-(2,4-difluorophenyl) isoxazole-3-carboxamide], the inhibition of growth at 20 ppm (in [1]; in the data set with Sclerotinia sclerotiorum; in [2]; in data set [3]; in data set [4]; in [5]) was no less than 80% throughout. Further, the inhibition of growth at 20 ppm in the data set on Fusarium culmorum was no less than 80%. The pest or weed control at 200 ppm (with Pyrenophora teres; in [6]) was no less than 80% each time.
For `Cn1cc(C(C)(CNC(=O)c2nc(-c3ccc(F)cc3F)no2)c2cccc(Cl)n2)cn1` (stereo not shown) [Compound P-84, N-[2-(6-chloro-2-pyridyl)-2-(1-methylpyrazol-4-yl)propyl]-3-(2,4-difluorophenyl)-1,2,4-oxadiazole-5-carboxamide], the inhibition of growth at 20 ppm (in [1]; in the data set with Sclerotinia sclerotiorum; in data set [2]; in data set [3]; in data set [4]; in [5]) was no less than 80% each time. Also, in the data set on Fusarium culmorum, the inhibition of growth at 20 ppm is no less than 80%. The pest or weed control at 200 ppm (with Alternaria solani; in the data set on Pyrenophora teres; in data set [6]; in data set [7]) was no less than 80% each time.
Regarding `Cn1cc(C(C)(CNC(=O)c2noc(-c3ccc(F)cc3F)n2)c2cccc(Cl)n2)cn1` (stereo not shown) [Compound P-83, N-[2-(6-chloro-2-pyridyl)-2-(1-methylpyrazol-4-yl)propyl]-5-(2,4-difluorophenyl)-1,2,4-oxadiazole-3-carboxamide], the inhibition of growth at 20 ppm (in data set [1]; in data set [2]; in data set [3]; in data set [4]; in data set [5]; in the data set on Fusarium culmorum) was no less than 80% throughout. Besides, the pest or weed control at 200 ppm (in the data set with Alternaria solani; with Pyrenophora teres; in [6]; in data set [7]) was no less than 80% throughout.
